According to patent US8492371B2, “Compounds as cannabinoid receptor ligands” (priority 2009, dated 2013):
pKi: −log10 of the molar value. Read-outs that look alike come from different tables or passages of the source.

Legend:
human CB2 receptors = biological target: T1, human CB2 receptors (Homo sapiens, UniProt P34972); assay: Human CB2 radioligand binding assay ([3H]CP-55,940 competition)
T1 construct: expressed in transfected cells; host or cells: HEK293
Summary of the method: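 Membranes from HEK293 cells stably expressing human CB2 (5 μg/well) incubated 90 min at 30 °C with 0.5 nM [3H]CP-55,940 and five concentrations of displacer (0.01 nM–10 μM) in pH 7.4 Tris/EDTA/MgCl2 buffer with fatty acid free BSA. Bound radioactivity counted after filtration; nonspecific binding defined with 10 μM unlabeled CP-55,940.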

rat CB2 receptors = biological target: T2, rat CB2 receptors (Rattus norvegicus, UniProt Q9QZN9); assay: Rat CB2 radioligand binding assay ([3H]CP-55,940 competition)
T2 construct: expressed in transfected cells; host or cells: HEK293
T2 sequence (Q9QZN9 1-360): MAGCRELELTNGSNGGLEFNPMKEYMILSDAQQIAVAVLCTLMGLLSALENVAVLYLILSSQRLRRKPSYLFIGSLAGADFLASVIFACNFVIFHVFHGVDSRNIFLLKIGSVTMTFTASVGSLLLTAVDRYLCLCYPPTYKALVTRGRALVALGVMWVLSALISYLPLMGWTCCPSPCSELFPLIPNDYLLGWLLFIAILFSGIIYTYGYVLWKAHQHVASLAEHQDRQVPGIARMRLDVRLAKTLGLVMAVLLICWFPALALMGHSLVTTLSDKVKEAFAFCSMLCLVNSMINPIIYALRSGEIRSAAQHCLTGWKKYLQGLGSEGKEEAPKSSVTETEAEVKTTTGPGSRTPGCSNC
Summary of the method: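 Membranes from HEK293 cells stably expressing rat CB2 (20 μg/well) incubated 45 min at 30 °C with 0.5 nM [3H]CP-55,940 and five competitor concentrations in Tris/EDTA/MgCl2 buffer with 0.5 mg/mL BSA, pH 7.4. Filtration and scintillation counting; nonspecific binding with 10 μM unlabeled CP-55,940.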

T1 sequence (P34972 whole entry): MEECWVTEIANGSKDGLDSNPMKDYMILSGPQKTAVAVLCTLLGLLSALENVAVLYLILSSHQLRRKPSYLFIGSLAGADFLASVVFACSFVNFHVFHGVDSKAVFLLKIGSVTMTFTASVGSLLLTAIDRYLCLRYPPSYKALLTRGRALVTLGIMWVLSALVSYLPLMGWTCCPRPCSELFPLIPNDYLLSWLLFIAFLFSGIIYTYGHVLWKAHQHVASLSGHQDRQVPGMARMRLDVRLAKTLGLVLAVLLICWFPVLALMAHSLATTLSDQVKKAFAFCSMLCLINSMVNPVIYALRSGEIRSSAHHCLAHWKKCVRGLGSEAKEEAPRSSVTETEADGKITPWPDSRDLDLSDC

Structure (SMILES) | pKi (human CB2 receptors) | pKi (rat CB2 receptors) | pKi (human CB2 receptors; HEK293 membranes, 0.5 nM [3H]CP-55,940, read-out: human CB2 Ki)
Cn1c(C(C)(C)C)c/c(=N\C(=O)c2cc(Br)cc3c2OCC3)n1C[C@H]1CCCO1 [Example 60, 5-bromo-N-{(3E)-5-tert-butyl-1-methyl-2-[(2R)-tetrahydrofuran-2-ylmethyl]-1,2-dihydro-3H-pyrazol-3-ylidene}-2,3-dihydro-1-benzofuran-7-carboxamide] | 7.18 | 7.34 | 
Cn1c(C(C)(C)C)c/c(=N\C(=O)c2cc(N)cc(C(F)(F)F)c2)n1C[C@H]1CCCO1 [Example 107, 3-amino-N-{(3E)-5-tert-butyl-1-methyl-2-[(2R)-tetrahydrofuran-2-ylmethyl]-1,2-dihydro-3H-pyrazol-3-ylidene}-5-(trifluoromethyl)benzamide] | 7.96 | 8.32 | 
Cn1c(C(C)(C)C)c/c(=N\C(=O)c2cc(F)cc(C(F)(F)F)c2)n1C[C@H]1CCCO1 [Example 96, N-{(3E)-5-tert-butyl-1-methyl-2-[(2R)-tetrahydrofuran-2-ylmethyl]-1,2-dihydro-3H-pyrazol-3-ylidene}-3-fluoro-5-(trifluoromethyl)benzamide] | 7.89 | 8.43 | 
Cn1c(C(C)(C)C)c/c(=N\C(=O)c2cc(C(F)(F)F)ccc2OCC2CC(F)(F)C2)n1C[C@H]1CCCO1 [Example 19, N-{(3E)-5-tert-butyl-1-methyl-2-[(2R)-tetrahydrofuran-2-ylmethyl]-1,2-dihydro-3H-pyrazol-3-ylidene}-2-[(3,3-difluorocyclobutyl)methoxy]-5-(trifluoromethyl)benzamide] | 7.66 | 7.96 | 
COc1ccc(C(F)(F)F)cc1C(=O)/N=c1\cc(C(C)(C)C)n(C)n1C[C@H]1CCCO1 [Example 47, N-{(3E)-5-tert-butyl-1-methyl-2-[(2R)-tetrahydrofuran-2-ylmethyl]-1,2-dihydro-3H-pyrazol-3-ylidene}-2-methoxy-5-(trifluoromethyl)benzamide] | 7.77 | 8.43 | 
Cn1c(C(C)(C)C)c/c(=N\C(=O)c2cc(C(F)(F)F)ccc2/C=C/C(C)(C)O)n1C[C@H]1CCCO1 [Example 100, N-{(3E)-5-tert-butyl-1-methyl-2-[(2R)-tetrahydrofuran-2-ylmethyl]-1,2-dihydro-3H-pyrazol-3-ylidene}-2-[(1E)-3-hydroxy-3-methylbut-1-enyl]-5-(trifluoromethyl)benzamide] | 8.49 | 8.96 | 
CC(CF)Oc1ccc(C(F)(F)F)cc1C(=O)/N=c1\cc(C(C)(C)C)n(C)n1C[C@H]1CCCO1 (stereo partly drawn) [Example 42, N-{(3E)-5-tert-butyl-1-methyl-2-[(2R)-tetrahydrofuran-2-ylmethyl]-1,2-dihydro-3H-pyrazol-3-ylidene}-2-(2-fluoro-1-methylethoxy)-5-(trifluoromethyl)benzamide] | 6.86 | 7.52 | 
CNC(=O)[C@@H](NC(=O)/N=c1\sc(C(C)(C)C)nn1C[C@H]1CCCO1)C(C)(C)C [Example 82, N^2-({[(2Z)-5-tert-butyl-3-[(2R)-tetrahydrofuran-2-ylmethyl]-1,3,4-thiadiazol-2(3H)-ylidene]amino}carbonyl)-N^1,3-dimethyl-L-valinamide] | 8.42 | 8.00 | 
CCOc1ccccc1C(=O)/N=c1\sc(C2CC2)nn1CC1CCCO1 (stereo not drawn) [Example 3, N-[(2Z)-5-cyclopropyl-3-(tetrahydrofuran-2-ylmethyl)-1,3,4-thiadiazol-2(3H)-ylidene]-2-ethoxybenzamide] |  | 7.15 | 6.94
COc1ccc(C(F)(F)F)cc1C(=O)/N=c1\oc(C(C)(C)C)cn1C[C@H]1CCCO1 [Example 66, N-[(2Z)-5-tert-butyl-3-[(2R)-tetrahydrofuran-2-ylmethyl]-1,3-oxazol-2(3 H)-ylidene]-2-methoxy-5-(trifluoromethyl)benzamide] | 8.68 | 9.10 | 
COc1c(Cl)cc(C(F)(F)F)cc1C(=O)/N=c1\cc(C(C)(C)C)n(C)n1C[C@H]1CCCO1 [Example 53, N-{(3E)-5-tert-butyl-1-methyl-2-[(2R)-tetrahydrofuran-2-ylmethyl]-1,2-dihydro-3H-pyrazol-3-ylidene}-3-chloro-2-methoxy-5-(trifluoromethyl)benzamide] | 7.80 | 8.37 | 
COc1ccc(Cl)cc1C(=O)/N=c1\cc(C(C)(C)C)on1C[C@H]1CCCO1 [Example 11, N-[(3E)-5-tert-butyl-2-[(2R)-tetrahydrofuran-2-ylmethyl]isoxazol-3(2H)-ylidene]-5-chloro-2-methoxybenzamide] | 8.32 | 8.59 | 
CC(C)[C@@H](CO)NC(=O)/N=c1\sc(C(C)(C)C)nn1C[C@H]1CCCO1 [Example 84, N-[(2Z)-5-tert-butyl-3-[(2R)-tetrahydrofuran-2-ylmethyl]-1,3,4-thiadiazol-2(3 H)-ylidene]-N′-[(1S)-1-(hydroxymethyl)-2-methylpropyl]urea] | 6.70 | 7.14 | 
Cn1c(C(C)(C)C)c/c(=N\C(=O)c2cc(C(F)(F)F)ccc2CCC(C)(C)O)n1C[C@H]1CCCO1 [Example 101, N-{(3E)-5-tert-butyl-1-methyl-2-[(2R)-tetrahydrofuran-2-ylmethyl]-1,2-dihydro-3H-pyrazol-3-ylidene}-2-(3-hydroxy-3-methylbutyl)-5-(trifluoromethyl)benazmide] | 7.31 | 7.47 | 
Cn1c(C(C)(C)C)c/c(=N\C(=O)c2cc(C(F)(F)F)ccc2Cl)n1C[C@H]1CCCO1 [Example 54, N-{(3E)-5-tert-butyl-1-methyl-2-[(2R)-tetrahydrofuran-2-ylmethyl]-1,2-dihydro-3H-pyrazol-3-ylidene}-2-chloro-5-(trifluoromethyl)benzamide] | 7.77 | 8.02 | 
Cn1c(C(C)(C)C)c/c(=N\C(=O)c2cc(O)cc(C(F)(F)F)c2)n1C[C@H]1CCCO1 [Example 103, N-{(3E)-5-tert-butyl-1-methyl-2-[(2R)-tetrahydrofuran-2-ylmethyl]-1,2-dihydro-3H-pyrazol-3-ylidene}-3-hydroxy-5-(trifluoromethyl)benzamide] | 7.80 | 8.36 | 
COc1ccc(C(F)(F)F)cc1C(=O)/N=c1\cc(C(C)(C)C)n(C)n1CC1CCCCO1 (stereo not drawn) [Example 63, N-[(3E)-5-tert-butyl-1-methyl-2-(tetrahydro-2H-pyran-2-ylmethyl)-1,2-dihydro-3H-pyrazol-3-ylidene]-2-methoxy-5-(trifluoromethyl)benzamide] | 7.44 | 7.70 | 
Cn1c(C(C)(C)C)c/c(=N\C(=O)c2cc(C(F)(F)F)cc(Cl)c2F)n1C[C@H]1CCCO1 [Example 52, N-{(3E)-5-tert-butyl-1-methyl-2-[(2R)-tetrahydrofuran-2-ylmethyl]-1,2-dihydro-3H-pyrazol-3-ylidene}-3-chloro-2-fluoro-5-(trifluoromethyl)benzamide] | 8.18 | 8.89 | 
CC(F)COc1ccc(C(F)(F)F)cc1C(=O)/N=c1\cc(C(C)(C)C)n(C)n1C[C@H]1CCCO1 (stereo partly drawn) [Example 40, N-{(3E)-5-tert-butyl-1-methyl-2-[(2R)-tetrahydrofuran-2-ylmethyl]-1,2-dihydro-3H-pyrazol-3-ylidene}-2-(2-fluoropropoxy)-5-(trifluoromethyl)benzamide] | 7.49 | 7.66 | 
C=Cc1ccc(C(F)(F)F)cc1C(=O)/N=c1\cc(C(C)(C)C)n(C)n1C[C@H]1CCCO1 [Example 122, N-{(3E)-5-tert-butyl-1-methyl-2-[(2R)-tetrahydrofuran-2-ylmethyl]-1,2-dihydro-3H-pyrazol-3-ylidene}-5-(trifluoromethyl)-2-vinylbenzamide] | 8.09 | 8.85 | 
COc1ccc(C(F)(F)F)cc1C(=O)/N=c1\cc(C(C)(C)C)n(C)n1CC1CC[C@H](C)O1 (stereo partly drawn) [Example 65, N-((3E)-5-tert-butyl-1-methyl-2-{[(55)-5-methyltetrahydrofuran-2-yl]methyl}-1,2-dihydro-3H-pyrazol-3-ylidene)-2-methoxy-5-(trifluoromethyl)benzamide] | 7.19 | 8.24 | 
Cn1c(C(C)(C)C)c/c(=N\C(=O)c2cc(F)ccc2Cl)n1C[C@H]1CCCO1 [Example 50, N-{(3E)-5-tert-butyl-1-methyl-2-[(2R)-tetrahydrofuran-2-ylmethyl]-1,2-dihydro-3H-pyrazol-3-ylidene}-2-chloro-5-fluorobenzamide] | 7.20 | 7.27 | 
Cn1c(C(C)(C)C)c/c(=N\C(=O)c2cc(C(F)(F)F)ccc2OC(C)(C)C)n1C[C@H]1CCCO1 [Example 25, 2-tert-butoxy-N-{(3E)-5-tert-butyl-1-methyl-2-[(2R)-tetrahydrofuran-2-ylmethyl]-1,2-dihydro-3H-pyrazol-3-ylidene}-5-(trifluoromethyl)benzamide] | 7.00 | 7.40 | 
Cn1c(C2(C)CC2)c/c(=N\C(=O)c2cc(C(F)(F)F)ccc2OCC2(O)CCC2)n1C[C@H]1CCCO1 [Example 102, 2-[(1-hydroxycyclobutyl)methoxy]-N-{(3E)-1-methyl-5-(1-methylcyclopropyl)-2-[(2 R)-tetrahydrofuran-2-ylmethyl]-1,2-dihydro-3H-pyrazol-3-ylidene}-5-(trifluoromethyl)benzamide] | 7.68 | 7.96 | 
